Experimental data taken from ChEMBL document CHEMBL4339181, “Kinase and Histone Deacetylase Hybrid Inhibitors for Cancer Therapy” (J Med Chem, 2019).

Assays:
[1] = test system: HepG2; experiment: Antitumor activity against human HepG2 cells xenografted in nu/nu CD-1 mouse assessed as tumor regression at 120 mg/kg, iv administered daily relative to control; type: functional
[2] = Toxicity in patient with advanced solid tumor administered as 1 hr iv infusion for 5 consecutive days every 2 weeks; type: organism-based; conditions: human, in vivo
[3] = Toxicity in patient with advanced solid tumor assessed as transient reversible nausea administered as 1 hr iv infusion for 5 consecutive days every 2 weeks relative to control; type: organism-based; conditions: human, in vivo
[4] = Toxicity in patient with advanced solid tumor assessed as fatigue administered as 1 hr iv infusion for 5 consecutive days every 2 weeks relative to control; type: organism-based; conditions: human, in vivo
[5] = Toxicity in patient with advanced solid tumor assessed as dry skin administered as 1 hr iv infusion for 5 consecutive days every 2 weeks relative to control; type: organism-based; conditions: human, in vivo
[6] = Toxicity in patient with advanced solid tumor assessed as serum creatinine elevation administered as 1 hr iv infusion for 5 consecutive days every 2 weeks relative to control; type: organism-based; conditions: human, in vivo
[7] = Toxicity in patient with advanced solid tumor assessed as serum AST elevation administered as 1 hr iv infusion for 5 consecutive days every 2 weeks relative to control; type: organism-based; conditions: human, in vivo
[8] = molecular target: Histone deacetylase 5 (Homo sapiens, UniProt Q9UQL6); experiment: Inhibition of HDAC5 (unknown origin)
[9] = molecular target: Histone deacetylase 9 (Homo sapiens, UniProt Q9UKV0); experiment: Inhibition of HDAC9 (unknown origin)
[10] = molecular target: T1, Protein deacetylase HDAC6 (Homo sapiens, UniProt Q9UBN7)
T1 sequence (Q9UBN7 whole entry): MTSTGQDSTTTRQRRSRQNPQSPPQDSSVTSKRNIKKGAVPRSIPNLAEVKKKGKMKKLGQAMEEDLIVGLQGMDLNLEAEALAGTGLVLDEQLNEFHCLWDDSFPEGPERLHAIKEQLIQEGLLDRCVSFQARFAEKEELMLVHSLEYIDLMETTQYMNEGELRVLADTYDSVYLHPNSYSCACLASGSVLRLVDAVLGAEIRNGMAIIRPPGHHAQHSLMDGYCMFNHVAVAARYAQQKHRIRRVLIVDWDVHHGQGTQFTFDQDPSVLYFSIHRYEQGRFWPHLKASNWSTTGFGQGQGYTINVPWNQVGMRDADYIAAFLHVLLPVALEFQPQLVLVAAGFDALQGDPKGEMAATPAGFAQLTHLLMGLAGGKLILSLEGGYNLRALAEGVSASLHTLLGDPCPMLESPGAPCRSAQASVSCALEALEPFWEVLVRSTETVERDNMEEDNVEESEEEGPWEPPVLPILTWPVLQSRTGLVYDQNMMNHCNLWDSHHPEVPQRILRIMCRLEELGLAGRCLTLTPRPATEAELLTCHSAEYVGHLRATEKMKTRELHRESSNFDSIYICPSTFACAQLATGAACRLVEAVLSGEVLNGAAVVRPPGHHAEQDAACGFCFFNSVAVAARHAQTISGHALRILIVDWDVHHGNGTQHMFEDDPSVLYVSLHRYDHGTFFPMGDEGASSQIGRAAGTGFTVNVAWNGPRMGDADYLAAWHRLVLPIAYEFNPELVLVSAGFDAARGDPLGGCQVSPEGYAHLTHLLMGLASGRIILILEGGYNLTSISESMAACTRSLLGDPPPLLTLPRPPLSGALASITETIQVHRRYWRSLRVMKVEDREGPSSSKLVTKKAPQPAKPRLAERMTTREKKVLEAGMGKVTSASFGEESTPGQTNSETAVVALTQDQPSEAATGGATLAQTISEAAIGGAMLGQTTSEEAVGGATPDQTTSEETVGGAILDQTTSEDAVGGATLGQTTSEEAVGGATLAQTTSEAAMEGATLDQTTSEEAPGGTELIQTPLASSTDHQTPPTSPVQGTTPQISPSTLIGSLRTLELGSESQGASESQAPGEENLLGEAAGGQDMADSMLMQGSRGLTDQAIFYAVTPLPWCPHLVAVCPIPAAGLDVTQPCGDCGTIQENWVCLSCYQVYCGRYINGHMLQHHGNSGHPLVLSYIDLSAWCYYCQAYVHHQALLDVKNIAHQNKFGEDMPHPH
Description: Inhibition of HDAC6 (unknown origin)

[11] = molecular target: T2, Histone deacetylase 8 (Homo sapiens, UniProt Q9BY41)
T2 sequence (Q9BY41 whole entry): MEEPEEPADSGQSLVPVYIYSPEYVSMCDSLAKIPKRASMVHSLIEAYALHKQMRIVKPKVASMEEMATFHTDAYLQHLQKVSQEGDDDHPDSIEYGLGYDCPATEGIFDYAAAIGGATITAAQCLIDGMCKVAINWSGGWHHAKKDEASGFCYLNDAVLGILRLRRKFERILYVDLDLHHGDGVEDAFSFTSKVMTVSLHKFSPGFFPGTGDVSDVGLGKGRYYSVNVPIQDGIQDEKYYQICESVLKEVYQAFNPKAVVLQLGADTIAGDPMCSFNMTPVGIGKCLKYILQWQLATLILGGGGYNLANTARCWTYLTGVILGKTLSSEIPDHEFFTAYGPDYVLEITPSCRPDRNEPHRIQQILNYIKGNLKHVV
Description: Inhibition of HDAC8 (unknown origin)

Histone deacetylase 5, sequence (Q9UQL6 whole entry): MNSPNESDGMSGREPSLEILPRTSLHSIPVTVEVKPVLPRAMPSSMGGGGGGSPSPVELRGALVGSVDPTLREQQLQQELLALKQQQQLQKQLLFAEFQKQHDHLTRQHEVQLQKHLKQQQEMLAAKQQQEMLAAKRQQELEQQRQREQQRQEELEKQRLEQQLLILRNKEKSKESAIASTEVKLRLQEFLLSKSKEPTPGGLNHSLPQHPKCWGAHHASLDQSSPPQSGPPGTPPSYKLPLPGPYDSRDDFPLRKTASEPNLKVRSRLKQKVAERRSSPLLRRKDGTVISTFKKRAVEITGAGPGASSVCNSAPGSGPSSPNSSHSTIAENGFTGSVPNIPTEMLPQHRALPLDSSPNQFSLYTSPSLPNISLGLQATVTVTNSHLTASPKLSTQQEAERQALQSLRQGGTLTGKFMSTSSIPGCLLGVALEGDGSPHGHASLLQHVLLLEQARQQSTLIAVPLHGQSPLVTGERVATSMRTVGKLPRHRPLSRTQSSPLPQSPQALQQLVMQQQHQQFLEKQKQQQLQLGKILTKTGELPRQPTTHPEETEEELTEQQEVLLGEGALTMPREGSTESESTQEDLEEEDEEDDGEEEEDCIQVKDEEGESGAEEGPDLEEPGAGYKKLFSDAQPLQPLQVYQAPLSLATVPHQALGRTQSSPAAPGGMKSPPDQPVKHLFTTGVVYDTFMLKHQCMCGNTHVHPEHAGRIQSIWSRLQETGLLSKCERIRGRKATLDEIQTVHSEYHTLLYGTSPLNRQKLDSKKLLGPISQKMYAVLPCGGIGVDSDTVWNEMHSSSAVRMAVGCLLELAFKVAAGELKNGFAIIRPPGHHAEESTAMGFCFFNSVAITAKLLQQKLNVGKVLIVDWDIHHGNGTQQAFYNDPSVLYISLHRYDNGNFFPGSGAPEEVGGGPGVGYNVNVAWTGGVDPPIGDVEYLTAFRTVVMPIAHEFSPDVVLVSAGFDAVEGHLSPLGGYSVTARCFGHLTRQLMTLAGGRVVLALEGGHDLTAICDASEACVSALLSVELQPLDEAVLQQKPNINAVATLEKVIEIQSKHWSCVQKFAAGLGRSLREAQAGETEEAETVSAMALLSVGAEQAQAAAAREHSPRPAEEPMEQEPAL
Histone deacetylase 9, sequence (Q9UKV0 whole entry): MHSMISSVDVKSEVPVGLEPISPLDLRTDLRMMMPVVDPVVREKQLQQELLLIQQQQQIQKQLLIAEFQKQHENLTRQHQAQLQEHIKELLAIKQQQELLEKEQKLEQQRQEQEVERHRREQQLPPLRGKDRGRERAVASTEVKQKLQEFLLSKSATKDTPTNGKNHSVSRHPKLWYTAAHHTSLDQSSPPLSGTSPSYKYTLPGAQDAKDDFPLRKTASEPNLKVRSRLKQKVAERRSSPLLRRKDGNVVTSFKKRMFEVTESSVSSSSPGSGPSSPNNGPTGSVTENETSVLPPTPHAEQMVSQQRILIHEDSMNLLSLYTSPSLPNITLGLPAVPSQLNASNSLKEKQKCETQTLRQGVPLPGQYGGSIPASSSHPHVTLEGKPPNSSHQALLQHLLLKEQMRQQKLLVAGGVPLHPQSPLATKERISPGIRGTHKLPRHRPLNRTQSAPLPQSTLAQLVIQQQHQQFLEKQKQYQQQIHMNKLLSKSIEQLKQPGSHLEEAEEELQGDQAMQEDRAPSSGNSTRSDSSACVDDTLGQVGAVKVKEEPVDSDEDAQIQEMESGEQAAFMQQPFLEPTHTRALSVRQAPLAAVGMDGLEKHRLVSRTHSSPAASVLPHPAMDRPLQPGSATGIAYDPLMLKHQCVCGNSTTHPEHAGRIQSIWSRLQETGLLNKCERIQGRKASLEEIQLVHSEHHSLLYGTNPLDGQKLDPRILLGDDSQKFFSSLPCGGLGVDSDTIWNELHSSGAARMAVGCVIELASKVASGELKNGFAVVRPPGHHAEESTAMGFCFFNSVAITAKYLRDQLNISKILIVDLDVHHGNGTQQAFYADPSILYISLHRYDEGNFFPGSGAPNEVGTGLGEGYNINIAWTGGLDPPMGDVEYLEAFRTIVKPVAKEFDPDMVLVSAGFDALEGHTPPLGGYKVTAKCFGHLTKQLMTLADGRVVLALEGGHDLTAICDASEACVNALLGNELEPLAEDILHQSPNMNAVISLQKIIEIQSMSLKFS

IC50 [8] | IC50 [9] | IC50 [10] | IC50 [11] | SMILES | Activity [1] [%] | MTD [2] [mg/m2] | Activity [3] [%] | Activity [4] [%] | Activity [5] [%] | Activity [6] [%] | Activity [7] [%]
 |  |  |  | C#Cc1cccc(Nc2ncnc3cc(OC)c(OCCCCCCC(=O)NO)cc23)c1 [CUDC-101] | 30 | 275 | 24 | 24 | 16 | 12 | 12
Not Active | Not Active | Not Active | Not Active | O=C(CCCCCCC(=O)Nc1ccccc1)NO [VORINOSTAT] |  |  |  |  |  |  | 
